Experimental findings from US10323027B2, “2,3-dihydro-4H-1,3-benzoxazin-4-one derivatives as modulators of cholinergic muscarinic M1 receptor” (Takeda Pharmaceutical Company Limited, priority 2015, dated 2019) are described below.

Where a name gives a salt, the structure may show the parent alone.

The target of this test is T1, human M1 receptor (hCHRM1) (Homo sapiens, UniProt P11229).
T1 construct: expressed in transfected cells
T1 sequence (P11229 1-460): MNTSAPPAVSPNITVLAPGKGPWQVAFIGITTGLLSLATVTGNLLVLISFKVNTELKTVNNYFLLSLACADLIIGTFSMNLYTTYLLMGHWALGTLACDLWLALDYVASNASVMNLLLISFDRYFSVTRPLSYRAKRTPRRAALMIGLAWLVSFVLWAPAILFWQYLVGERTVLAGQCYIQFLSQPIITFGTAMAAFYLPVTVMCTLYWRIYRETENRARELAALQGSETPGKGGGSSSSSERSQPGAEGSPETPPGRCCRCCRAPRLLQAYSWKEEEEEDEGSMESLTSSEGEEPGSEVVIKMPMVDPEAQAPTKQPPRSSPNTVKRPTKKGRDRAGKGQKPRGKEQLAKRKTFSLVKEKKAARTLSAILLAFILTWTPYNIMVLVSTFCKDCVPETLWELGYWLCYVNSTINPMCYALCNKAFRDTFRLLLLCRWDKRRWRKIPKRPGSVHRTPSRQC
The test is described as follows: Measurement of M1 receptor positive allosteric modulator (M1PAM) activity, Ca2+ fluorescence by FLIPRtetra (Experimental Example 1). To be noted: for activity (%) at 10 μM: 10 μM test compound, 100% = acetylcholine 1 μM, 0% = DMSO; for EC50: inflection point of concentration-dependent curve, in presence of acetylcholine at EC20 (0.8-1.0 nM), CHO-K1 cells expressing hCHRM1, read-out: IP value. The class given is cell-based. The protocol: Measurement of M1 Receptor Positive Allosteric Modulator (M1PAM) Activity
The activity of a test compound in the presence of acetylcholine at EC20 concentration (final concentration 0.8-1.0 nM), which affords an action corresponding to about 20% of the maximum activity, was measured as PAM activity. The method is as follows. CHO-K1 cells stably expressing a human M1 receptor (hCHRM1) were plated on a 384-well black clear bottom plate (BD Falcon) at 5,000 cells/well, and cultured in an incubator at 37° C., 5% CO2 for 1 day. The medium in the cell plate was removed, and a dye solution (prepared by adding Recording medium (DOJINDO LABORATORIES) to a final concentration of 1×concentration, Fluo-4 AM (DOJINDO LABORATORIES) to a final concentration of 2.5 μg/mL, Pluronic F127 (DOJINDO LABORATORIES) to a final concentration of 0.08%, and probenecid (DOJINDO LABORATORIES) to a final concentration of 1.25 mM to assay buffer (HBSS (Invitrogen), 20 mM HEPES (Invitrogen), 0.1% BSA (Wako Pure Chemical Industries, Ltd.))) was added at 30 μL/well. The cells were left standing in the incubator at 37° C., 5% CO2 for 30 min, and further left standing at room temperature for 30 min. A test compound prepared by diluting with assay buffer containing 3.2-4.0 nM acetylcholine was added at 10 μL/well, and the fluorescence was measured by FLIPRtetra (Molecular Devices) for 1 min every 1 second. With the definition that the amount of change in the fluorescence on addition of acetylcholine (final concentration 1 μM) is 100% and that on addition of DMSO instead of a test compound is 0%, the activity (%) of the test compound was calculated, and the inflection point in the concentration-dependent curve of the test compound was calculated as IP values.

For the molecule `Cc1c(Cc2ccc(-c3ccn(C)n3)nc2)cc2c(c1F)OCN([C@H]1CCC[C@@H]1O)C2=O` [Example 22, 8-fluoro-3-((1S,2S)-2-hydroxycyclopentyl)-7-methyl-6-((6-(1-methyl-1H-pyrazol-3-yl)pyridin-3-yl)methyl)-2,3-dihydro-4H-1,3-benzoxazin-4-one], the “activity (%) at 10 μM” value amounted to 105% and the EC50 came out at 0.69 nM.

Turning to `Cc1c(Cc2ccc(-n3cccn3)cc2)cc2c(c1C)OCN([C@H]1COCC[C@@H]1O)C2=O` [Example 23, 3-[(3S,4S)-4-hydroxytetrahydro-2H-pyran-3-yl]-7,8-dimethyl-6-[4-(1H-pyrazol-1-yl)benzyl]-2,3-dihydro-4H-1,3-benzoxazin-4-one], the “activity (%) at 10 μM” value worked out at 114% and the EC50 is 2 nM.

With `Cc1ccc(Cc2cc3c(c(Cl)c2C)OCN([C@H]2CCC[C@@H]2O)C3=O)cn1` [Example 25, 8-chloro-3-((1S,2S)-2-hydroxycyclopentyl)-7-methyl-6-((6-methylpyridin-3-yl)methyl)-2,3-dihydro-4H-1,3-benzoxazin-4-one], the “activity (%) at 10 μM” value came to 101% and the EC50 came out at 4.2 nM.

For the molecule `Cc1ccc(Cc2cc3c(c(C)c2C)OCN([C@H]2CCC[C@@H]2O)C3=O)cn1` [Example 26, 3-((1S,2S)-2-hydroxycyclopentyl)-7,8-dimethyl-6-((6-methylpyridin-3-yl)methyl)-2,3-dihydro-4H-1,3-benzoxazin-4-one monohydrochloride], the EC50 was found to be 5.4 nM. Further, the “activity (%) at 10 μM” value (monohydrochloride) worked out at 119%.

On to `Cc1ccc(Cc2cc3c(c(F)c2C)OCN([C@H]2CCCC[C@@H]2O)C3=O)cn1` [Example 27, 8-fluoro-3-((1S,2S)-2-hydroxycyclohexyl)-7-methyl-6-((6-methylpyridin-3-yl)methyl)-2,3-dihydro-4H-1,3-benzoxazin-4-one], for which the “activity (%) at 10 μM” value worked out at 105% and the EC50 came to 6 nM.

In the case of `COc1ccc(Cc2cc3c(c(C)c2C)OCN([C@H]2COCC[C@@H]2O)C3=O)cn1` [Example 29, 3-((3S,4S)-4-hydroxytetrahydro-2H-pyran-3-yl)-6-((6-methoxypyridin-3-yl)methyl)-7,8-dimethyl-2,3-dihydro-4H-1,3-benzoxazin-4-one], the “activity (%) at 10 μM” value is 106% and the EC50 came to 14 nM.

Regarding `Cc1ccc(Cc2cc3c(c(F)c2C)OCN([C@H]2COCC[C@@H]2O)C3=O)cn1` [Example 32, 1,5-anhydro-2,4-dideoxy-2-(8-fluoro-7-methyl-6-((6-methylpyridin-3-yl)methyl)-4-oxo-2H-1,3-benzoxazin-3(4H)-yl)-L-threo-pentitol], the “activity (%) at 10 μM” value came to 108% and the EC50 was determined as 37 nM.

In the case of `Cc1cc2c(cc1Cc1ccc(Cl)nc1)C(=O)N([C@H]1CCC[C@@H]1O)CO2` [Example 34, 6-((6-chloropyridin-3-yl)methyl)-3-((1S,2S)-2-hydroxycyclopentyl)-7-methyl-2,3-dihydro-4H-1,3-benzoxazin-4-one], the “activity (%) at 10 μM” value is 96% and the EC50 was 53 nM.

As to `Cc1cc2c(cc1Cc1ccc(-n3cccn3)cc1)C(=O)N([C@H]1CCC[C@@H]1O)CO2` [Example 35, 3-((1S,2S)-2-hydroxycyclopentyl)-7-methyl-6-(4-(1H-pyrazol-1-yl)benzyl)-2,3-dihydro-4H-1,3-benzoxazin-4-one], the “activity (%) at 10 μM” value amounted to 109% and the EC50 came to 5.8 nM.

For `Cc1c(Cc2ccc(-c3ccn(C)n3)nc2)cc2c(c1C)OCN([C@H]1COCC[C@@H]1O)C2=O` [Example 37, 1,5-anhydro-2,4-dideoxy-2-(7,8-dimethyl-6-((6-(1-methyl-1H-pyrazol-3-yl)pyridin-3-yl)methyl)-4-oxo-2H-1,3-benzoxazin-3(4H)-yl)-L-threo-pentitol], the “activity (%) at 10 μM” value amounted to 109% and the EC50 stood at 1.2 nM.

As for `CCc1ccc(Cc2cc3c(c4ccccc24)OCN([C@H]2COCC[C@@H]2O)C3=O)cn1` [Example 38, 1,5-anhydro-2,4-dideoxy-2-(6-((6-ethylpyridin-3-yl)methyl)-4-oxo-2H-naphtho[2,1-e][1,3]oxazin-3(4H)-yl)-L-threo-pentitol], the “activity (%) at 10 μM” value is recorded as 99% and the EC50 is 1.5 nM.

Regarding `Cc1ccc(Cc2cc3c(c4ccccc24)OCN([C@H]2CCC[C@@H]2O)C3=O)cn1` [Example 40, 3-((1S,2S)-2-hydroxycyclopentyl)-6-((6-methylpyridin-3-yl)methyl)-2,3-dihydro-4H-naphtho[2,1-e][1,3]oxazin-4-one], the “activity (%) at 10 μM” value came out at 98% and the EC50 turned out to be 1.6 nM.

Consider `C=Cc1ccc(Cc2cc3c(c4ccccc24)OCN([C@H]2COCC[C@@H]2O)C3=O)cn1` [Example 42, 1,5-anhydro-2,4-dideoxy-2-(4-oxo-6-((6-vinylpyridin-3-yl)methyl)-2H-naphtho[2,1-e][1,3]oxazin-3(4H)-yl)-L-threo-pentitol], for which the “activity (%) at 10 μM” value is 124% and the EC50 came to 2 nM.

`O=C1c2cc(Cc3ccc(Cl)nc3)c3ccccc3c2OCN1[C@H]1CCC[C@@H]1O` [Example 43, 6-((6-chloropyridin-3-yl)methyl)-3-((1S,2S)-2-hydroxycyclopentyl)-2,3-dihydro-4H-naphtho[2,1-e][1,3]oxazin-4-one]: the “activity (%) at 10 μM” value stood at 93% and the EC50 was 2.4 nM.

As for `Cc1c(Cc2ccc(C#N)cc2)cc2c(c1C)OCN([C@H]1CCC[C@@H]1O)C2=O` [Example 44, 4-((3-((1S,2S)-2-hydroxycyclopentyl)-7,8-dimethyl-4-oxo-3,4-dihydro-2H-1,3-benzoxazin-6-yl)methyl)benzonitrile], the “activity (%) at 10 μM” value was determined as 99% and the EC50 came to 3.9 nM.

Turning to `Cc1c(Cc2ccc(-c3cnn(C)c3)nc2)cc2c(c1Cl)OCN(CC1CCCO1)C2=O` (stereo not drawn) [Example 45, 8-chloro-7-methyl-6-((6-(1-methyl-1H-pyrazol-4-yl)pyridin-3-yl)methyl)-3-(tetrahydrofuran-2-ylmethyl)-2,3-dihydro-4H-1,3-benzoxazin-4-one], the “activity (%) at 10 μM” value is 92% and the EC50 was found to be 4.8 nM.

Take `COc1ccc(Cc2cc3c(c4ccccc24)OCN([C@H]2COCC[C@@H]2O)C3=O)cn1` [Example 46, 1,5-anhydro-2,4-dideoxy-2-(6-((6-methoxypyridin-3-yl)methyl)-4-oxo-2H-naphtho[2,1-e][1,3]oxazin-3(4H)-yl)-L-threo-pentitol]: the “activity (%) at 10 μM” value is recorded as 109% and the EC50 came to 4.9 nM.

Consider `Cn1cc(-c2ccc(Cc3cc4c(c5ccccc35)OCNC4=O)cn2)cn1` [Example 47, 6-((6-(1-methyl-1H-pyrazol-4-yl)pyridin-3-yl)methyl)-2,3-dihydro-4H-naphtho[2,1-e][1,3]oxazin-4-one], for which the “activity (%) at 10 μM” value worked out at 110% and the EC50 was 5.3 nM.

For the molecule `Cc1cc2c(cc1Cc1ccc(-n3cccn3)cc1)C(=O)N([C@H]1COCC[C@@H]1O)CO2` [Example 50, 1,5-anhydro-2,4-dideoxy-2-(7-methyl-4-oxo-6-(4-(1H-pyrazol-1-yl)benzyl)-2H-1,3-benzoxazin-3(4H)-yl)-L-threo-pentitol], the “activity (%) at 10 μM” value is 120% and the EC50 stood at 8.6 nM.

Consider `Cc1c(Cc2ccc(Cl)nc2)cc2c(c1F)OCN([C@H]1CCCC[C@@H]1O)C2=O` [Example 54, 6-((6-chloropyridin-3-yl)methyl)-8-fluoro-3-((1S,2S)-2-hydroxycyclohexyl)-7-methyl-2,3-dihydro-4H-1,3-benzoxazin-4-one], for which the “activity (%) at 10 μM” value amounted to 116% and the EC50 came to 11 nM.

For `O=C1c2cc(CN3CCSCC3)c3ccccc3c2OCN1[C@H]1CCC[C@@H]1O` [Example 57, 3-((1S,2S)-2-hydroxycyclopentyl)-6-(thiomorpholin-4-ylmethyl)-2,3-dihydro-4H-naphtho[2,1-e][1,3]oxazin-4-one], the “activity (%) at 10 μM” value is on record as 106% and the EC50 is 16 nM.
